Structures are written as SMILES.

The first data set is described as follows: RP, 150 × 2.1 mm, 2.6 µm, 40 °C, 0.35 mL/min, estimated dead time 0.94 min; A: water + 0.1% formic acid, pH 3; B: acetonitrile + 0.1% formic acid, pH 3; gradient (min/%B) 0/0 1/0 12.5/100 14/100 14.2/0 15/0. The note with it: stereoisomer not certain.
Turning to `O=C(O)CCCc1c[nH]c2ccccc12` [3-Indolebutyric acid], the LC retention time is 7.63 min.

With `CC(=O)NCCc1c[nH]c2ccc(O)cc12` [N-acetylserotonin], the LC retention time is 4.69 min.

As to `COc1cc(CCC(=O)O)cc(OC)c1OC` [3-(3,4,5-Trimethoxyphenyl)propionic acid], the LC retention time was 6.58 min.

As to `O=C(O)CCc1c[nH]c2ccccc12` [3-Indolepropionic acid], the LC retention time is 7.09 min.

Take `O=c1ccc2ccc(O)cc2o1` [Umbelliferone]: the LC retention time was 5.77 min.

Turning to `CCC=CCC1C(=O)CCC1CC(=O)OC` (stereo not drawn) [Methyl jasmonate], the LC retention time was 7.64 min.

For the compound `O=c1ccc2cc(OC3OC(CO)C(O)C(O)C3O)c(O)cc2o1` (stereo not drawn) [Esculin], the LC retention time is 4.11 min.

On to `O=C(NC(O)C(=O)O)c1ccccc1` (stereo not drawn) [Alpha-hydroxyhippuric acid], for which the LC retention time is 3.62 min.

In the case of `NCC(=O)c1ccccc1` [2 aminoacetophenone], the LC retention time was 6.84 min.

`COc1cc(-c2oc3cc(O)cc(O)c3c(=O)c2O)ccc1OC1OC(C(=O)O)C(O)C(O)C1O` (stereo not drawn) [Isorhamnetin 4'-O-glucuronide]: the LC retention time was 6.03 min.

In the case of `O=C(O)c1cc(=O)c2ccccc2[nH]1` [kynurenic acid], the LC retention time was 4.3 min.

For the compound `Cc1cc(=O)oc2cc(O)ccc12` [4-methylumbelliferone], the LC retention time was 6.41 min.

With `O=C1CC(c2ccc(O)cc2)Oc2cc(OC3OC(CO)C(O)C(O)C3O)cc(O)c21` (stereo not drawn) [Naringenin 7-O-glucoside], the LC retention time is 6.02 min.

Take `COc1cc(-c2oc3cc(O)cc(O)c3c(=O)c2OC2OC(CO)C(O)C(O)C2O)cc(OC)c1O` (stereo not drawn) [Syringetin-3-glucoside]: the LC retention time was 6 min.

On to `O=c1cc(O)c2ccccc2o1` [4-hydroxycoumarin], for which the LC retention time was 6.51 min.

Consider `NCCc1c[nH]c2ccc(O)cc12` [Serotonin], for which the LC retention time is 1.54 min.

`OCCc1c[nH]c2ccccc12` [Tryptophol]: the LC retention time was 6.45 min.

As for `O=c1cc(-c2ccc(O)c(O)c2)oc2c(C3OC(CO)C(O)C(O)C3O)c(O)cc(O)c12` (stereo not drawn) [Orientin], the LC retention time is 5.3 min.

Turning to `COc1cc2c(CCNC(C)=O)c[nH]c2cc1O` [6-Hydroxymelatonin], the LC retention time is 5.14 min.

As for `O=c1c(OC2OC(CO)C(O)C(O)C2O)c(-c2ccc(O)cc2)oc2cc(O)cc(O)c12` (stereo not drawn) [Kaempferol-3-O-glucoside], the LC retention time is 5.95 min.

Consider `COc1ccc2[nH]cc(CC(=O)O)c2c1` [5-Methoxyindoleacetic acid], for which the LC retention time was 6.26 min.

As for `COc1cccc(O)c1O` [3-Methoxycatechol], the LC retention time was 4.79 min.

For `O=C(O)CNC(=O)c1ccccc1O` [2-Hydroxyhippuric acid], the LC retention time was 5.5 min.

Regarding `O=C(O)c1cc2ccccc2[nH]1` [2-Indolecarboxylic acid], the LC retention time was 6.06 min.

Consider `O=C(O)CNC(=O)c1ccco1` [2-Furoylglycine], for which the LC retention time was 2.51 min.

In the case of `O=S(=O)(O)c1[nH]c2ccccc2c1CCO` [Tryptophol-2-sulfonate], the LC retention time is 4.73 min.

Take `NC(=O)Cc1c[nH]c2ccccc12` [3-Indoleacetamide]: the LC retention time is 5.28 min.

On to `COC(=O)Cc1c[nH]c2ccccc12` [Methyl indole acetate], for which the LC retention time was 8.01 min.

Regarding `CC1OC(OCC2OC(Oc3c(-c4ccc(O)cc4)oc4cc(O)cc(O)c4c3=O)C(O)C(O)C2O)C(O)C(O)C1O` (stereo not drawn) [Kaempferol 3-O-rutinoside], the LC retention time was 5.78 min.

On to `O=C(O)C(O)CCc1ccccc1` (stereo not drawn) [2-hydroxy-4-phenylbutyric acid], for which the LC retention time is 6.54 min.

Take `COc1ccc2[nH]cc(CCNC(C)=O)c2c1` [Melatonin]: the LC retention time is 6.29 min.

For the compound `O=c1c(OC2OC(CO)C(O)C(O)C2O)c(-c2ccc(O)c(O)c2)oc2cc(O)cc(O)c12` (stereo not drawn) [Quercetin-3-O-galactoside], the LC retention time was 5.66 min.

As to `CC(C=CC1(O)C(C)=CC(=O)CC1(C)C)=CC(=O)O` (stereo not drawn) [Abscisic acid], the LC retention time is 6.9 min.

Another data set can be described thus: RP, 150 × 2.1 mm, 2.6 µm, 40 °C, 0.35 mL/min, estimated dead time 0.94 min; A: water + 0.1% formic acid, pH 3; B: acetonitrile + 0.1% formic acid, pH 3; gradient (min/%B) 0/0 1/5 7/45 8.5/80 10.5/80 11/5 12/5. Conditions: stereoisomer not certain.
Consider `O=C(O)CCCc1c[nH]c2ccccc12` [3-Indolebutyric acid], for which the LC retention time was 7.97 min.

Consider `CC(=O)NCCc1c[nH]c2ccc(O)cc12` [N-acetylserotonin], for which the LC retention time was 4.5 min.

Consider `COc1cc(CCC(=O)O)cc(OC)c1OC` [3-(3,4,5-Trimethoxyphenyl)propionic acid], for which the LC retention time is 6.73 min.

As to `O=C(O)CCc1c[nH]c2ccccc12` [3-Indolepropionic acid], the LC retention time was 7.34 min.

Consider `O=c1ccc2ccc(O)cc2o1` [Umbelliferone], for which the LC retention time is 7.69 min.

Turning to `CCC=CCC1C(=O)CCC1CC(=O)OC` (stereo not drawn) [Methyl jasmonate], the LC retention time is 7.97 min.

For the compound `O=c1ccc2cc(OC3OC(CO)C(O)C(O)C3O)c(O)cc2o1` (stereo not drawn) [Esculin], the LC retention time was 3.94 min.

With `O=C(NC(O)C(=O)O)c1ccccc1` (stereo not drawn) [Alpha-hydroxyhippuric acid], the LC retention time was 3.34 min.

As to `NCC(=O)c1ccccc1` [2 aminoacetophenone], the LC retention time was 6.86 min.

For `COc1cc(-c2oc3cc(O)cc(O)c3c(=O)c2O)ccc1OC1OC(C(=O)O)C(O)C(O)C1O` (stereo not drawn) [Isorhamnetin 4'-O-glucuronide], the LC retention time was 6.21 min.

Source of the values: the RepoRT retention time repository (doi:10.1016/j.foodchem.2021.129757).
